Reference: US10414811B2, “Protease-resistant lipidated GLP-1 analogs” (MEDIMMUNE LIMITED, priority 2015, dated 2019)
Read-outs that look alike come from different tables or passages of the source. Square brackets hold non-standard residues; d marks the D form. Peptide text beside a SMILES is read from it. αMeF = C[C@](N)(Cc1ccccc1)C(=O)O; αMeK = C[C@](N)(CCCCN)C(=O)O; αMeS = C[C@](N)(CO)C(=O)O; Aib = CC(C)(N)C(=O)O

Tests used:
Format in all cases: cell-based
[1] = biological target: T1, human GLP-1 receptor (GLP-1R) (Homo sapiens, UniProt P43220); test: cAMP assay, human GLP-1R cells
T1 construct: expressed in transfected cells
Method: Sample dilutions are made in duplicate.
A frozen cryo-vial of cells expressing the receptor of interest is thawed rapidly in a water-bath, transferred to pre-warmed assay buffer and spun at 240×g for 5 minutes. Cells are re-suspended in assay buffer at a batch-dependent optimized concentration (e.g. hGCGR cells at 2×10^5 cells/ml, hGLP-1R and hGIPR cells at 1×10^5 cells/ml).
To this, 5 μL cell suspension is added and the plates incubated at room temperature for 30 minutes.
cAMP levels are measured using a commercially available cAMP dynamic 2 HTRF kit (Cisbio, Cat #62AM4PEJ), following the two step protocol as per manufacturer's recommendations. In brief; anti-cAMP cryptate (donor fluorophore) and cAMP-d2 (acceptor fluorophore) are made up separately by diluting each 1/20 in conjugate & lysis buffer provided in the kit. 5 μL anti-cAMP cryptate is added to wells of the assay plate, and 5 μL cAMP-d2 is added to wells except non-specific binding (NSB) wells, to which conjugate and lysis buffer are added. […] EC50 values of the synthetic peptides determined in cAMP assays are then determined.
Data is transformed to % Delta F as described in the manufacturer's guidelines and analyzed by 4-parameter logistic fit to determine EC50 values. […] To compare the balance of activities at the GLP-1R and GCGR between different peptides and across different conditions, these can be correlated, where the EC50's are related to those of comparator peptides.

[2] = biological target: T2, human glucagon receptor (GCGR) (Homo sapiens, UniProt P47871); test: cAMP assay, human GCGR cells; details: cAMP assay
T2 construct: expressed in transfected cells
Method in brief: (§1)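 Peptide-stimulated cAMP measured by two-step HTRF after a 30 min room-temperature incubation with receptor-expressing cells (hGLP-1R, hGIPR at 1×10^5 cells/ml; hGCGR at 2×10^5 cells/ml). Duplicate dilutions; EC50 from 4-parameter logistic fit of % Delta F.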

[3] = biological target: T3, human glucose-dependent insulinotropic peptide receptor (GIPR) (Homo sapiens, UniProt P48546); test: cAMP assay, human GIPR cells; details: cAMP assay
T3 construct: expressed in transfected cells
T3 sequence (P48546 22-466): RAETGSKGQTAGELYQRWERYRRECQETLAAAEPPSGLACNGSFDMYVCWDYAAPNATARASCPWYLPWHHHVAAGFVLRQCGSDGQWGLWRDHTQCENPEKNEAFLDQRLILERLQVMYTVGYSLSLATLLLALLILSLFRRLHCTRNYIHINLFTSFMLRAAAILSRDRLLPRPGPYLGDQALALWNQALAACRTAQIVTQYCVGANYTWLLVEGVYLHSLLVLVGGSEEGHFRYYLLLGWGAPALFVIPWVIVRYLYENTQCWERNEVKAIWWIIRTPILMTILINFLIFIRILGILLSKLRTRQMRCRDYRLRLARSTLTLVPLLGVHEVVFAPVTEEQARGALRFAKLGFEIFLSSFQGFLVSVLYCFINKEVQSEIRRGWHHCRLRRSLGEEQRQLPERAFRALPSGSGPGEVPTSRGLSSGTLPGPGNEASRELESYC
Method in brief: as §1

[4] = cAMP assay, first determination (n1), read-out: Primary assay EC50 GLP-1R n1
[5] = cAMP assay, second determination (n2), read-out: Primary assay EC50 GLP-1R n2
[6] = mean of n1 and n2, read-out: Mean pM GLP-1R
[7] = first determination (n1), read-out: Primary assay EC50 Gluc-R (n1)
[8] = second determination (n2), read-out: Primary assay EC50 Gluc-R (n2)
[9] = first determination (n1), read-out: Primary assay EC50 GIP-R (n1)
[10] = second determination (n2), read-out: Primary assay EC50 GIP-R (n2)

T1 sequence (P43220 24-463): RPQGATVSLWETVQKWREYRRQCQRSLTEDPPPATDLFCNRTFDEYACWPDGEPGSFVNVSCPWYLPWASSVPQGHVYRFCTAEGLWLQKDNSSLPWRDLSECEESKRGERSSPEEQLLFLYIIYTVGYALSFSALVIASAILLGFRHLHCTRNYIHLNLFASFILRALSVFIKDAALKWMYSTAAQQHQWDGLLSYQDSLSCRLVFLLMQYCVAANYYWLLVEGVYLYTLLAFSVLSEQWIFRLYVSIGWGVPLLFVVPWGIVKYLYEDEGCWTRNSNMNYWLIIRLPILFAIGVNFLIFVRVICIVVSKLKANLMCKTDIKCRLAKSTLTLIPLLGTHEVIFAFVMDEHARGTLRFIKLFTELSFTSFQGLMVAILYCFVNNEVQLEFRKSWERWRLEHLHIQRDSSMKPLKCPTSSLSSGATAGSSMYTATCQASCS
T2 sequence (P47871 26-477): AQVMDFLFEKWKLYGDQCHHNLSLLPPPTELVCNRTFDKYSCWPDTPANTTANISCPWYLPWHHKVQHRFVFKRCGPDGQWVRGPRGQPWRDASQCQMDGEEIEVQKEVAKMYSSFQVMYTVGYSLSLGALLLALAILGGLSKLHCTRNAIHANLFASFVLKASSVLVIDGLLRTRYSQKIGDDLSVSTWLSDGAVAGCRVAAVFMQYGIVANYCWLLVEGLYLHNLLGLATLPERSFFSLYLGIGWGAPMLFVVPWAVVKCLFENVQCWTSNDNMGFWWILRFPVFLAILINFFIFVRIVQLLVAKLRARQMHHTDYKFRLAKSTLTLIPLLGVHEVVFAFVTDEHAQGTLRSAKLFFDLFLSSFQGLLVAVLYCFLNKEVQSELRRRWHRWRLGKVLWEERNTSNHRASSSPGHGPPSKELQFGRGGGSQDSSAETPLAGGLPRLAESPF

Row | SMILES | EC50 [1, 4] [pM] | EC50 [1, 5] [pM] | EC50 [1, 6] [pM] | EC50 [2, 7] [nM] | EC50 [2, 8] [nM] | EC50 [3, 9] [nM] | EC50 [3, 10] [nM]
1 | CC[C@H](C)[C@H](NC(=O)[C@H](CO)NC(=O)[C@](C)(Cc1ccccc1)NC(=O)[C@H](CC(=O)O)NC(=O)[C@H](CO)NC(=O)[C@@H](NC(=O)[C@](C)(Cc1ccccc1)NC(=O)[C@H](CO)NC(=O)CNC(=O)[C@H](CCC(=O)O)NC(=O)C(C)(C)NC(=O)[C@@H](N)Cc1ccc(O)cc1)[C@@H](C)CC)C(=O)N[C@@H](C)C(=O)N[C@@H](CCSC)C(=O)N[C@@H](CC(=O)O)C(=O)N[C@@H](CCCCN)C(=O)N[C@H](C(=O)N[C@@H](Cc1c[nH]cn1)C(=O)N[C@@H](CCC(N)=O)C(=O)N[C@@H](CCC(N)=O)C(=O)N[C@@H](CC(=O)O)C(=O)N[C@@](C)(Cc1ccccc1)C(=O)N[C@H](C(=O)N[C@@H](CC(N)=O)C(=O)N[C@@](C)(Cc1ccccc1)C(=O)N[C@@H](CC(C)C)C(=O)N[C@@H](CC(C)C)C(=O)N[C@@H](C)C(=O)N[C@@H](CCC(N)=O)C(=O)N[C@@H](CCCCN)C(N)=O)C(C)C)[C@@H](C)CC [compound 15] (H-Y[Aib]EGS[αMeF]ISD[αMeF]SIAMDKIHQQD[αMeF]VN[αMeF]LLAQK-NH2; N-terminus assumed) | 120000 | 120000 | 119000 | 120 | 120 | 0.16 | 0.079
2 | CC[C@H](C)[C@H](NC(=O)[C@](C)(Cc1ccccc1)NC(=O)[C@H](CCC(=O)O)NC(=O)[C@](C)(CCCCN)NC(=O)[C@H](C)NC(=O)[C@H](C)NC(=O)[C@H](CCC(=O)O)NC(=O)CNC(=O)[C@H](CCC(=O)O)NC(=O)[C@H](CC(C)C)NC(=O)[C@](C)(Cc1ccccc1)NC(=O)[C@H](CO)NC(=O)[C@H](CO)NC(=O)[C@@H](NC(=O)[C@H](CC(=O)O)NC(=O)[C@](C)(CO)NC(=O)[C@@H](NC(=O)[C@](C)(Cc1ccccc1)NC(=O)[C@H](CO)NC(=O)CNC(=O)[C@H](CCC(=O)O)NC(=O)C(C)(C)NC(=O)[C@@H](N)Cc1c[nH]cn1)[C@@H](C)O)C(C)C)C(=O)N[C@@H](C)C(=O)N[C@@](C)(Cc1ccccc1)C(=O)N[C@H](C(=O)N[C@H](C(=O)N[C@@](C)(CCCCN)C(=O)NCC(=O)NCC(N)=O)C(C)C)C(C)C [compound 16] | 11000 | 9400 | 10100 | ≥ 100 | ≥ 100 | ≥ 100 | ≥ 100
3 | CC[C@H](C)[C@H](NC(=O)[C@](C)(Cc1ccccc1)NC(=O)[C@H](CCC(=O)O)NC(=O)[C@](C)(CCCCN)NC(=O)[C@H](C)NC(=O)[C@H](C)NC(=O)[C@H](CCC(=O)O)NC(=O)CNC(=O)[C@H](CCC(=O)O)NC(=O)[C@H](CC(C)C)NC(=O)[C@](C)(Cc1ccccc1)NC(=O)[C@H](CO)NC(=O)[C@](C)(CO)NC(=O)[C@@H](NC(=O)[C@H](CC(=O)O)NC(=O)[C@](C)(CO)NC(=O)[C@@H](NC(=O)[C@](C)(Cc1ccccc1)NC(=O)[C@H](CO)NC(=O)CNC(=O)[C@H](CCC(=O)O)NC(=O)C(C)(C)NC(=O)[C@@H](N)Cc1c[nH]cn1)[C@@H](C)O)C(C)C)C(=O)N[C@@H](C)C(=O)N[C@@](C)(Cc1ccccc1)C(=O)N[C@H](C(=O)N[C@H](C(=O)N[C@@](C)(CCCCN)C(=O)NCC(=O)NCC(N)=O)C(C)C)C(C)C [compound 18] | 4100 | 5800 | 4940 | ≥ 100 | ≥ 100 | ≥ 100 | ≥ 100
4 | CC[C@H](C)[C@H](NC(=O)[C@H](Cc1ccccc1)NC(=O)[C@H](CCC(=O)O)NC(=O)[C@H](CCCCN)NC(=O)[C@H](C)NC(=O)[C@H](C)NC(=O)[C@H](CCC(N)=O)NC(=O)CNC(=O)[C@H](CCC(=O)O)NC(=O)[C@H](CC(C)C)NC(=O)[C@H](Cc1ccc(O)cc1)NC(=O)[C@H](CO)NC(=O)[C@H](CO)NC(=O)[C@@H](NC(=O)[C@H](CC(=O)O)NC(=O)C(C)(C)NC(=O)[C@@H](NC(=O)[C@H](Cc1ccccc1)NC(=O)[C@@H](NC(=O)CNC(=O)[C@H](CCC(=O)O)NC(=O)C(C)(C)NC(=O)[C@@H](N)Cc1c[nH]cn1)[C@@H](C)O)[C@@H](C)O)C(C)C)C(=O)N[C@@H](C)C(=O)N[C@@H](Cc1c[nH]c2ccccc12)C(=O)N[C@@H](CC(C)C)C(=O)N[C@H](C(=O)N[C@@H](CCCCN)C(=O)NCC(=O)N[C@@H](CCCNC(=N)N)C(N)=O)C(C)C [compound 20] (H-H[Aib]EGTFT[Aib]DVSSYLEGQAAKEFIAWLVKGR-NH2) | 15000 | 12000 | 13500 | ≥ 290 | ≥ 290 | ≥ 290 | ≥ 290
5 | CC[C@H](C)[C@H](NC(=O)[C@H](Cc1ccccc1)NC(=O)[C@H](CCC(=O)O)NC(=O)[C@H](CCCCN)NC(=O)[C@H](C)NC(=O)[C@H](C)NC(=O)[C@H](CCC(N)=O)NC(=O)CNC(=O)[C@H](CCC(=O)O)NC(=O)[C@H](CC(C)C)NC(=O)[C@H](Cc1ccc(O)cc1)NC(=O)[C@H](CO)NC(=O)C(C)(C)NC(=O)[C@@H](NC(=O)[C@H](CC(=O)O)NC(=O)C(C)(C)NC(=O)[C@@H](NC(=O)[C@H](Cc1ccccc1)NC(=O)[C@@H](NC(=O)CNC(=O)[C@H](CCC(=O)O)NC(=O)C(C)(C)NC(=O)[C@@H](N)Cc1c[nH]cn1)[C@@H](C)O)[C@@H](C)O)C(C)C)C(=O)N[C@@H](C)C(=O)N[C@@H](Cc1c[nH]c2ccccc12)C(=O)N[C@@H](CC(C)C)C(=O)N[C@H](C(=O)N[C@@H](CCCCN)C(=O)NCC(=O)N[C@@H](CCCNC(=N)N)C(N)=O)C(C)C [compound 24] (H-H[Aib]EGTFT[Aib]DV[Aib]SYLEGQAAKEFIAWLVKGR-NH2) | 3300 | 7900 | 5600 | ≥ 740 | ≥ 740 | ≥ 740 | ≥ 740
6 | CC[C@H](C)[C@H](NC(=O)[C@](C)(Cc1ccccc1)NC(=O)[C@H](CCC(=O)O)NC(=O)[C@](C)(CCCCN)NC(=O)[C@H](C)NC(=O)[C@H](C)NC(=O)[C@H](CCC(=O)O)NC(=O)CNC(=O)[C@H](CCC(=O)O)NC(=O)[C@H](CC(C)C)NC(=O)[C@](C)(Cc1ccccc1)NC(=O)[C@H](CO)NC(=O)[C@](C)(CO)NC(=O)[C@@H](NC(=O)[C@H](CC(=O)O)NC(=O)CNC(=O)[C@@H](NC(=O)[C@](C)(Cc1ccccc1)NC(=O)[C@H](CO)NC(=O)CNC(=O)[C@H](CCC(=O)O)NC(=O)C(C)(C)NC(=O)[C@@H](N)Cc1c[nH]cn1)[C@@H](C)O)C(C)C)C(=O)N[C@@H](C)C(=O)N[C@@](C)(Cc1ccccc1)C(=O)N[C@H](C(=O)N[C@H](C(=O)N[C@@](C)(CCCCN)C(=O)NCC(=O)NCC(N)=O)C(C)C)C(C)C [compound 25] (H-H[Aib]EGS[αMeF]TGDV[αMeS]S[αMeF]LEGEAA[αMeK]E[αMeF]IA[αMeF]VV[αMeK]GG-NH2) | 500 | 590 | 544 | ≥ 100 | 22 | ≥ 100 | ≥ 100
7 | CC[C@H](C)[C@H](NC(=O)[C@](C)(Cc1ccccc1)NC(=O)[C@H](CCC(=O)O)NC(=O)[C@](C)(CCCCN)NC(=O)[C@H](C)NC(=O)[C@H](C)NC(=O)[C@H](CCC(=O)O)NC(=O)CNC(=O)[C@H](CCC(=O)O)NC(=O)[C@H](CC(C)C)NC(=O)[C@](C)(Cc1ccccc1)NC(=O)[C@H](CO)NC(=O)[C@](C)(CO)NC(=O)[C@@H](NC(=O)[C@H](CC(=O)O)NC(=O)[C@H](C)NC(=O)[C@@H](NC(=O)[C@](C)(Cc1ccccc1)NC(=O)[C@H](CO)NC(=O)CNC(=O)[C@H](CCC(=O)O)NC(=O)C(C)(C)NC(=O)[C@@H](N)Cc1c[nH]cn1)[C@@H](C)O)C(C)C)C(=O)N[C@@H](C)C(=O)N[C@@](C)(Cc1ccccc1)C(=O)N[C@H](C(=O)N[C@H](C(=O)N[C@@](C)(CCCCN)C(=O)NCC(=O)NCC(N)=O)C(C)C)C(C)C [compound 26] (H-H[Aib]EGS[αMeF]TADV[αMeS]S[αMeF]LEGEAA[αMeK]E[αMeF]IA[αMeF]VV[αMeK]GG-NH2) | 99 | 150 | 123 | ≥ 100 | 30 | ≥ 100 | ≥ 100
